In general, Kd refers to the free concentration of one partner at which half of the binding sites on the other are occupied at equilibrium, for simple one-to-one binding.

Consider 14 compounds from ChEMBL document CHEMBL3991601, “The target landscape of clinical kinase drugs” (Science, 2017).

Assay [1] addresses Activated CDC42 kinase 1 (Homo sapiens, UniProt Q07912).
Assay [2] deals with Protein-tyrosine kinase 2-beta (Homo sapiens, UniProt Q14289).
Assay [3] deals with T1, Ras-related protein Rab-27A (Homo sapiens, UniProt P51159).
T1 sequence (P51159 whole entry): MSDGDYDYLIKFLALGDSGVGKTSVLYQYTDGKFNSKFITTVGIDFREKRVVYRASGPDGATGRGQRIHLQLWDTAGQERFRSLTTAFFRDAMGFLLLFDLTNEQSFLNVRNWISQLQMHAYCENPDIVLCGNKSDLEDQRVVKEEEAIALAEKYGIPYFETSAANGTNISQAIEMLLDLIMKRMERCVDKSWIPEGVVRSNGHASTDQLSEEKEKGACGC

For assay [4], the target named is T2, Serine/threonine-protein kinase Nek3 (Homo sapiens, UniProt P51956).
T2 sequence (P51956 whole entry): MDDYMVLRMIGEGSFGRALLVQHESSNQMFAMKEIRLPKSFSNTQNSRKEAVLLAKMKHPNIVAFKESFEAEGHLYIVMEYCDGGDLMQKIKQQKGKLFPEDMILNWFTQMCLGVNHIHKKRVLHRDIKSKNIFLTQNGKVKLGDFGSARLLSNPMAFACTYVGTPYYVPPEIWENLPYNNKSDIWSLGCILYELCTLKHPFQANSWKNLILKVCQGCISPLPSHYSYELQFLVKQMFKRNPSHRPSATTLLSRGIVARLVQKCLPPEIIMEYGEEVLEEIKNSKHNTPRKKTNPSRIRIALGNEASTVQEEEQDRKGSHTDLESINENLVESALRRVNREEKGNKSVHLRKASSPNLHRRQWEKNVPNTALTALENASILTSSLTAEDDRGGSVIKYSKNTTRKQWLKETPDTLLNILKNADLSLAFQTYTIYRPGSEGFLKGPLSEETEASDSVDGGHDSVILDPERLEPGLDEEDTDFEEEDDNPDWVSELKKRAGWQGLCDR

In assay [5] the target is T3, Serine/threonine-protein kinase STK11 (Homo sapiens, UniProt Q15831).
T3 sequence (Q15831 whole entry): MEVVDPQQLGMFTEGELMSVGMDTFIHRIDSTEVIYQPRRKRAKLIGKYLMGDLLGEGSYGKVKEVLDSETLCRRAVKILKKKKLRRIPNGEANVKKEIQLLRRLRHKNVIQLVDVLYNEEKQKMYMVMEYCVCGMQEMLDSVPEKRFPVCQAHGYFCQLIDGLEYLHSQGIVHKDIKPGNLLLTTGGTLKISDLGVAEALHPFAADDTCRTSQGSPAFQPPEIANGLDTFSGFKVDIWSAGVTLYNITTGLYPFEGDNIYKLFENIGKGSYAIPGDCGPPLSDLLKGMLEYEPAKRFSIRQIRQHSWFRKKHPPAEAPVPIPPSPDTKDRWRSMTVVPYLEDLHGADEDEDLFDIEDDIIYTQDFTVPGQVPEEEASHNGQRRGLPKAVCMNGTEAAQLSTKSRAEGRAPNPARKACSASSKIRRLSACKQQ

Assay [6] has as its target T4, Mitogen-activated protein kinase kinase kinase 2 (Homo sapiens, UniProt Q9Y2U5).
T4 sequence (Q9Y2U5 whole entry): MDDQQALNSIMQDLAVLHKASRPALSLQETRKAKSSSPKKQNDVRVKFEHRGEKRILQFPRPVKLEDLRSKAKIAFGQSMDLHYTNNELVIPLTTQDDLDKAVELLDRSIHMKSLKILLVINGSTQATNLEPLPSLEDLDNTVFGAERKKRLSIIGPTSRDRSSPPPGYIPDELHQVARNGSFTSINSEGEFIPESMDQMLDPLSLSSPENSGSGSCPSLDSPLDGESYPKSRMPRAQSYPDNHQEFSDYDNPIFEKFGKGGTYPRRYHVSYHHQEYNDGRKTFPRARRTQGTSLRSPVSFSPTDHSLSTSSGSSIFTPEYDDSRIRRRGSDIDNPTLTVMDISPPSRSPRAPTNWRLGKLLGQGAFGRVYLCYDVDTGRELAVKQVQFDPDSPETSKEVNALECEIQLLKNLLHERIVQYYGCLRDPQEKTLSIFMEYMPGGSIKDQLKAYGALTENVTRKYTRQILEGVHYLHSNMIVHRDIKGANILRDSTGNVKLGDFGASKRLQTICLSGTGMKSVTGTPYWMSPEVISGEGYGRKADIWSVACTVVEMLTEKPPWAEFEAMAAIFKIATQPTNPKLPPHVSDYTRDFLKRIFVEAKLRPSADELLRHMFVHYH

Assay [7] has as its target Proto-oncogene tyrosine-protein kinase receptor Ret (Homo sapiens, UniProt P07949).
Assay [8] addresses Cyclin-dependent kinase 6 (Homo sapiens, UniProt Q00534).
The target of assay [9] is Protein-tyrosine kinase 6 (Homo sapiens, UniProt Q13882).

Structures are written as SMILES. Counter-ions that a name gives are not always drawn. The source made the active and inactive calls. For most assays here, no stated cut-off is given here; in the data, actives have a measured Kd and inactives only a lower limit.

Protein-tyrosine kinase 2-beta, sequence (Q14289 whole entry): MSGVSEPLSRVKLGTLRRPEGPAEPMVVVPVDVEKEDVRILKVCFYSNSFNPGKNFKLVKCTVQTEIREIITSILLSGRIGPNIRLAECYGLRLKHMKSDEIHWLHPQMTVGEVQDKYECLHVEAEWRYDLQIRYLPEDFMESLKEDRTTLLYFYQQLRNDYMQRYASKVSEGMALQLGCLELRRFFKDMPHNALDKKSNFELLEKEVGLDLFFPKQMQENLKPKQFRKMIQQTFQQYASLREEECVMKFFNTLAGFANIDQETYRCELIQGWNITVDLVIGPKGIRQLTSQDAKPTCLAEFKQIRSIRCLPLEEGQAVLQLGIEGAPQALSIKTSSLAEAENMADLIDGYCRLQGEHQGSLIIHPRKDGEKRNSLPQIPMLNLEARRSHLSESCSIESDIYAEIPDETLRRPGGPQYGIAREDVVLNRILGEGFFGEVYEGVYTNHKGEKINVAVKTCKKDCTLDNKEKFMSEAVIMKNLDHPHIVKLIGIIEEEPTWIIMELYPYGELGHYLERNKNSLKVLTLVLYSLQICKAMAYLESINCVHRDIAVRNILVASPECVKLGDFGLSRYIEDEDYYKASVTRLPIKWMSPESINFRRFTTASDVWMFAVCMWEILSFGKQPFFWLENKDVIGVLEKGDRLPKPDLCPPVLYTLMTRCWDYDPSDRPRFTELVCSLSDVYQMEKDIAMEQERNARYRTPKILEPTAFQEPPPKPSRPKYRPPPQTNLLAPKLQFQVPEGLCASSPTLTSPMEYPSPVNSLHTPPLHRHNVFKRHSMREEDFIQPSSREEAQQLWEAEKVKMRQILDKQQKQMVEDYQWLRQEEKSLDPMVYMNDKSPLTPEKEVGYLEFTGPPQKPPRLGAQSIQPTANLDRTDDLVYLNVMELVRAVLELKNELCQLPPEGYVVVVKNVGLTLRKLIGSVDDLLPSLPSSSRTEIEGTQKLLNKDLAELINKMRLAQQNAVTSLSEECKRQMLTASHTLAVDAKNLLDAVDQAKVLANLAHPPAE
Protein-tyrosine kinase 6, sequence (Q13882 whole entry): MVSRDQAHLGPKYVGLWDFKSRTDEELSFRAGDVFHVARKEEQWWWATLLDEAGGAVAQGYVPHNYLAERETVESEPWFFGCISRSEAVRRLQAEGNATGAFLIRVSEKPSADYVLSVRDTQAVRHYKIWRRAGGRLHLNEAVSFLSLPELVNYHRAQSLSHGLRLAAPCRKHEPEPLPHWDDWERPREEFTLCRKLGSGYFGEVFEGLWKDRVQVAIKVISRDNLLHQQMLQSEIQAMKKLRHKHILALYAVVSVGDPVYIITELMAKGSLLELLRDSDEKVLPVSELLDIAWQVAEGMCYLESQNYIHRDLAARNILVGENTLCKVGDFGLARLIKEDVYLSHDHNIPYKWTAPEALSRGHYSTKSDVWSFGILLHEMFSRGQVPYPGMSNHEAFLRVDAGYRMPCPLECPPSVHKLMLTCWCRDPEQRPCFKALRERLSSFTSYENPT
Proto-oncogene tyrosine-protein kinase receptor Ret, sequence (P07949 whole entry): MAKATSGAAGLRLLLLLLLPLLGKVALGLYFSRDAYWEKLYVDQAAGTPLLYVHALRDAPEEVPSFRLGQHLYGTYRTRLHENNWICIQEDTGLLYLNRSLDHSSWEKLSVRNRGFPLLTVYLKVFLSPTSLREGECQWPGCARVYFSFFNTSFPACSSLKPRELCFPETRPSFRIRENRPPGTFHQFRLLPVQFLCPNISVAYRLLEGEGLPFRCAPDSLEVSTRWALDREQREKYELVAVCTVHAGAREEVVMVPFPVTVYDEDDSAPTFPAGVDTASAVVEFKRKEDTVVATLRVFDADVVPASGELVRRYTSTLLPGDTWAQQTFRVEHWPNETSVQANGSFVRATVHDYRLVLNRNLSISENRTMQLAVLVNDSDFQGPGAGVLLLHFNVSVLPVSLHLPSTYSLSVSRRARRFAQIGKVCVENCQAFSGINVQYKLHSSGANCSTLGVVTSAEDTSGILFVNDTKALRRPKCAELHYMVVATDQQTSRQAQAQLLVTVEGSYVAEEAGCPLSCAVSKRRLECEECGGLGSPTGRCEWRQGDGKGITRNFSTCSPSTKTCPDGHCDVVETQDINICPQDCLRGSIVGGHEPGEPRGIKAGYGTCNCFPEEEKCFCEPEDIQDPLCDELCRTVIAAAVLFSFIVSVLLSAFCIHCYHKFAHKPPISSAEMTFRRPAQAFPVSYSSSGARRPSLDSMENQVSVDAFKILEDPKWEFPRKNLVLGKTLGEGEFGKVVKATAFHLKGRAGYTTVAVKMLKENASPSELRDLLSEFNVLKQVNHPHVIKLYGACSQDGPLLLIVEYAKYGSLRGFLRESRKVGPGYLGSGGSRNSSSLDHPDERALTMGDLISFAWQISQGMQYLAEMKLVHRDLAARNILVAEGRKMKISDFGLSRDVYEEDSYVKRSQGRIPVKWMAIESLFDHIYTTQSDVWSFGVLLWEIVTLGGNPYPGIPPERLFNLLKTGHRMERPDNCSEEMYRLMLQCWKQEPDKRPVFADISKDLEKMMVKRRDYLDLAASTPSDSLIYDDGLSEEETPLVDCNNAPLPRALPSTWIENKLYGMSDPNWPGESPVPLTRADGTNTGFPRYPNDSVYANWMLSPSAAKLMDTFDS
Cyclin-dependent kinase 6, sequence (Q00534 whole entry): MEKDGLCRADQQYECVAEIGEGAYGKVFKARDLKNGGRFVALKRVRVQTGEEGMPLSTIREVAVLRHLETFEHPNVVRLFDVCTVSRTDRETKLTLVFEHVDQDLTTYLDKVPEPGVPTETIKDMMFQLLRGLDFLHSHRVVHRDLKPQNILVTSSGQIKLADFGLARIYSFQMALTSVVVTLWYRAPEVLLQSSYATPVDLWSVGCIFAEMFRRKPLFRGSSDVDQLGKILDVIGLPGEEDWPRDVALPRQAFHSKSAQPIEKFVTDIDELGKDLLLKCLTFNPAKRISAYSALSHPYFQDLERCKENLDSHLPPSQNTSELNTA
Activated CDC42 kinase 1, sequence (Q07912 whole entry): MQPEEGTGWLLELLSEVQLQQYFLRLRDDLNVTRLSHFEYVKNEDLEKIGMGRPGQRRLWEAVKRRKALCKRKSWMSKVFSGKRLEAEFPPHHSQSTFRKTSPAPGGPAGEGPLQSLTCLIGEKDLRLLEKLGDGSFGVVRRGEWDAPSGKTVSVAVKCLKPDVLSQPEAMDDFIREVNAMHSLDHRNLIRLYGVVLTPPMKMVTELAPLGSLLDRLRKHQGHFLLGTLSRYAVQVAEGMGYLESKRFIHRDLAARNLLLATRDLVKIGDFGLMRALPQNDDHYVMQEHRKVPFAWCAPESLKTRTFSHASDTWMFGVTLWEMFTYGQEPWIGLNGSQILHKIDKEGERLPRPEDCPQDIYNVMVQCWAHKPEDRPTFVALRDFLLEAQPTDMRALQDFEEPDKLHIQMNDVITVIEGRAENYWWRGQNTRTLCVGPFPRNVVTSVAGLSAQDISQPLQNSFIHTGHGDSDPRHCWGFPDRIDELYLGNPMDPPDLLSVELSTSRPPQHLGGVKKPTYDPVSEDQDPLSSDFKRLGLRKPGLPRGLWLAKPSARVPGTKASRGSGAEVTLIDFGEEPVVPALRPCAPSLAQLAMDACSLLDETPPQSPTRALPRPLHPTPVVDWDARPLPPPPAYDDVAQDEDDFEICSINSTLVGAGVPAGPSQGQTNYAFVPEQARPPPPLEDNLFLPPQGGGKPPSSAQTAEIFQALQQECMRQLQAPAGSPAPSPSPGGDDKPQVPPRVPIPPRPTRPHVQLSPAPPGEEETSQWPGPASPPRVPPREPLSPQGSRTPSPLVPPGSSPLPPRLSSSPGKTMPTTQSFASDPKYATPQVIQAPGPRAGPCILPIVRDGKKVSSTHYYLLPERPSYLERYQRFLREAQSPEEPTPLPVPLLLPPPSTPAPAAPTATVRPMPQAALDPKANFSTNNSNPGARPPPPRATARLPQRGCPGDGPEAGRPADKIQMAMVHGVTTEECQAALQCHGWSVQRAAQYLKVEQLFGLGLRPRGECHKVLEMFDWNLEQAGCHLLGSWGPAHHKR

Consider `C=CC(=O)Nc1cc2c(Nc3ccc(F)c(Cl)c3)ncnc2cc1C#CC(C)(C)N1CCN(C)CC1` [AV-412 FREE BASE], for which the Kd in [1], in [2], in assay [3], in assay [4], in [5] and in [6] was > 30 µM (inactive) each time. The Kd in [7], in [8] and in assay [9] was > 30 µM (inactive) each time.

As to `COc1cc([C@@H]2c3cc4c(cc3[C@H](O)[C@H]3COC(=O)[C@@H]23)OCO4)cc(OC)c1OC` [AXL-1717], the Kd in assay [1], in assay [2], in assay [3], in [4], in [5] and in assay [6] was > 30 µM (inactive) in each case. Also, the Kd in assay [7], in assay [8] and in [9] was > 30 µM (inactive) each time.

As for `NC(=O)Nc1cc(-c2cccc(F)c2)sc1C(=O)N[C@H]1CCCNC1` [AZD-7762], the Kd is 1.09 µM (active) in assay [1]; 0.608 µM (active) in [2]; > 30 µM (inactive) in [3]; > 30 µM (inactive) in assay [4]; > 30 µM (inactive) in [5]; > 30 µM (inactive) in [6]. The dissociation constant Kd is 0.023 µM (active) in assay [7], > 30 µM (inactive) in assay [8] and 1.37 µM (active) in assay [9].

Turning to `Cc1cc(C(=O)NOCCO)c(Nc2ccc(I)cc2F)n(C)c1=O` [AZD-8330], the Kd in assay [1], in assay [2], in [3], in [4], in [5] and in [6] was > 30 µM (inactive) each time. Further, the Kd in assay [7], in assay [8] and in assay [9] was > 30 µM (inactive) throughout.

`Cn1cnc2c(F)c(Nc3ccc(Br)cc3F)c(C(=O)NOCCO)cc21` [BINIMETINIB]: the Kd in [1], in assay [2], in assay [3], in [4], in assay [5] and in assay [6] was > 30 µM (inactive) each time. For the same compound, the Kd in [7], in assay [8] and in [9] was > 30 µM (inactive) each time.

As for `CCn1c(C(=O)N(C2CC2)C2CC2)cc2c3c(ncn3C)c(Nc3cc(C)n(C)n3)nc21` [BMS-911543], the Kd in assay [1], in assay [2], in assay [3], in [4], in assay [5] and in [6] was > 30 µM (inactive) each time. In addition, the Kd in assay [7], in assay [8] and in assay [9] was > 30 µM (inactive) throughout.

Consider `COc1c(OCCCN2CCOCC2)ccc2c1N=C(NC(=O)c1cnc(N)nc1)N1CCN=C21` [COPANLISIB], for which the Kd in assay [1] is > 30 µM (inactive); in [2], > 30 µM (inactive); in [3], 4.49 µM; in [4], > 30 µM (inactive); in assay [5], > 30 µM (inactive); in assay [6] it was > 30 µM (inactive). The Kd in [7], in [8] and in [9] was > 30 µM (inactive) throughout.

Consider `COCC(=O)NC/C=C/c1ccc2ncnc(Nc3ccc(Oc4ccc(C)nc4)c(C)c3)c2c1` [CP-724714], for which the Kd in assay [1], in [2], in [3], in assay [4], in assay [5] and in assay [6] was > 30 µM (inactive) throughout. Besides, the Kd in assay [7], in assay [8] and in assay [9] was > 30 µM (inactive) throughout.

With `CCS(=O)(=O)N1CCN(c2ccc(Nc3ncc(C(N)=O)c(NC4CC4)n3)cc2)CC1` [Cerdulatinib Hydrochloride], the Kd in [1] is > 30 µM (inactive); in assay [2], > 30 µM (inactive); in [3], > 30 µM (inactive); in assay [4], 1.1 µM (active); in assay [5], > 30 µM (inactive); in assay [6], 0.747 µM (active). Also, the Kd in [7] is 1.23 µM (active); in [8] it was > 30 µM (inactive); in assay [9] it was > 30 µM (inactive).

As for `Cc1nc2cc(-n3ncc(C(=O)c4cc5ccccc5[nH]4)c3N)ccc2[nH]1` [FGFR INHIBITOR DEBIO 1347], the Kd in [1], in assay [2], in [3], in [4], in assay [5] and in assay [6] was > 30 µM (inactive) throughout. The values for the Kd in assay [7], in assay [8] and in assay [9] were 0.783 µM (active), > 30 µM (inactive) and > 30 µM (inactive), respectively.

In the case of `O=C(Nc1nc2cccc(-c3ccc(CN4CCS(=O)(=O)CC4)cc3)n2n1)C1CC1` [FILGOTINIB], the Kd in [1], in assay [2], in assay [3], in [4], in assay [5] and in assay [6] was > 30 µM (inactive) each time. Moreover, the Kd in assay [7], in [8] and in [9] was > 30 µM (inactive) each time.

On to `Cc1cccc(-c2nn3c(c2-c2ccnc4ccc(C(N)=O)cc24)CCC3)n1` [GALUNISERTIB], for which the Kd in [1], in assay [2], in assay [3], in [4], in [5] and in [6] was > 30 µM (inactive) each time. Further, the Kd in [7], in [8] and in [9] was > 30 µM (inactive) each time.

`CCn1cc(-c2ccnc3[nH]c(-c4cccc(CN(C)C)c4)cc23)c(-c2ccc(NC(=O)N(C)C)cc2)n1` [GSK-1070916]: the Kd in [1], in assay [2], in [3], in assay [4], in assay [5] and in [6] was > 30 µM (inactive) in each case. Moreover, the dissociation constant (Kd) in assay [7] was 0.067 µM (active); in [8], > 30 µM (inactive); in assay [9] it was 8.19 µM (active).

Consider `COc1ccc(S(=O)(=O)N(C(C)=O)c2ccccc2/C=C/c2cc[n+]([O-])cc2)cc1` [HMN-214], for which the Kd in assay [1], in assay [2], in [3], in assay [4], in [5] and in [6] was > 30 µM (inactive) throughout. For the same compound, the Kd in assay [7], in assay [8] and in [9] was > 30 µM (inactive) throughout.
